The source of these data is patent US20130310362A1, “FUSED PYRIMIDINES” (BAYER PHARMA AKTIEGESELLSCHAFT, priority 2009, published 2013).

Assay [1] concerns Akt phosphorylation (Ser473) in MCF7 cells. In words: Cellular PI3K/Akt pathway assay (Phospho-Akt1 (Ser473) sandwich ELISA). The class given is cell-based. The settings on record: Homo sapiens, β-Heregulin stimulated, 48 h incubation, read-out: IC50 p-Akt (Biological Assay 5.0). For orientation: In an ELISA, binding on a coated surface is turned into a signal by an enzyme label.
Protocol: Biological Assay 5.0: Cellular PI3K/Akt Pathway Assay
In order to study the cellular activity of the compounds according to the present invention, an Enzyme Linked Immunosorbent Assay (ELISA)-based assay may be used to investigate the inhibitory effect on Akt phosphorylation.
The ELISA Kit detects endogenous levels of phosphorylated Akt protein. […] After incubation with cell lysates, the coated antibody captures the phosphorylated Akt protein. […] The magnitude of optical density for this developed color is proportional to the quantity of phosphorylated Akt protein. MCF7 cells (ATCC HTB-22) are seeded into 96 well fate bottom plates at a density of 10000 cells/well. 24 hours after seeding, the cells are serum starved using low-serum medium (IMEM media including 0.1% charcoal treated FCS (FCS: fetal calf serum)). After 24 hours 1 μl each of the compound dilutions (test compounds were dissolved as 10 mM solutions in dimethylsulfoxide (DMSO) and subsequently diluted) are added into each well of the 96 well plates and incubated for 48 h at 37° C. in a humidified athmosphere containing 5% CO2. To stimulate Akt phosphorylation, β-Heregulin (20 ng/mL β-HRG) is added in parallel to the compounds. Wells containing unstimulated control cells (no β-Heregulin stimulation) are incubated with or without the diluted compound. Wells containing untreated control cells (no compound) are filled with medium containing 0.5% v:v DMSO and are or are not stimulated with 3-Heregulin.
Cells are harvested and lysed with brief sonification in 1× cell lysis buffer (20 mM Tris (pH7.5), 150 mM NaCl, 1 mM ethylene diaminetetraacetate (EDTA), 1 mM ethylene glycolbis(2-aminoethyl)-N,N,N′,N′-tetraacetic acid (EGTA), 1 vol % Triton X-100, 2.5 mM sodium pyrophosphate, 1 mM β-glycerolphosphate, 1 mM Na3VO4, 1 μg/mL leupeptin). The lysate is centrifuged for 10 min. at 4° C. and the supernatant is transferred to a new tube. […] The absorbance is measured at λ=450 nm (Wallac Victor2; Perkin Elmer, USA) within 30 min. after adding the STOP solution. […]

Assay [2] has as its target T1, human recombinant kinase full-length Akt2 (Homo sapiens, UniProt P31751).
T1 construct: human recombinant kinase full-length Akt2; His; purchased Invitrogen PV 3975; host or cells: insect cells
In words: Akt2 kinase assay (TR-FRET). The assay is classed as biochemical. The settings on record: Akt2 activated by PDK1, 10 μM ATP, 1 μM peptide substrate, 60 min at 22° C.; read-out: IC50 Akt2 (Biological Assay 2.0). From the text: Biological Assay 2.0: Akt2 Kinase Assay
Akt2 inhibitory activity of compounds of the present invention was quantified employing the Akt2 TR-FRET assay as described in the following paragraphs.
(§1) His-tagged human recombinant kinase full-length Akt2 expressed in insect cells and activated by PDK1 was purchased form Invitrogen (part number PV 3975). As substrate for the kinase reaction the biotinylated peptide biotin-Ahx-KKLNRTLSFAEPG (C-terminus in amide form) was used which can be purchased e.g. from the company Biosynthan GmbH (Berlin-Buch, Germany). For the assay 50 nl of a 100 fold concentrated solution of the test compound in DMSO was pipetted into a black low volume 384 well microtiter plate (Greiner Bio-One, Frickenhausen, Germany), 2 μl of a solution of Akt2 in assay buffer [50 mM TRIS/HCl pH 7.5, 5 mM MgCl2, 1 mM dithiothreitol, 0.02% (v/v) Triton X-100 (Sigma)] were added and the mixture was incubated for 15 min at 22° C. to allow pre-binding of the test compounds to the enzyme before the start of the kinase reaction. Then the kinase reaction was started by the addition of 3 μl of a solution of adenosine-tri-phosphate (ATP, 16.7 μM=>final conc. in the 5 μl assay volume is 10 μM) and substrate (1.67 μM=>final conc. in the 5 μl assay volume is 1 μM) in assay buffer and the resulting mixture was incubated for a reaction time of 60 min at 22° C. The concentration of Akt2 in the assay was adjusted depending of the activity of the enzyme lot and was chosen appropriate to have the assay in the linear range, typical enzyme concentrations were in the range of about 0.2 ng/μl (final conc. in the 5 μl assay volume).
(§2) The reaction was stopped by the addition of 5 μl of a solution of HTRF detection reagents (200 nM streptavidine-XL665 [Cisbio] and 1.5 nM anti-phosho-Serine antibody [Millipore, cat. #35-001] and 0.75 nM LANCE Eu-W 1024 labeled anti-mouse IgG antibody [Perkin Elmer]) in an aqueous EDTA-solution (100 mM EDTA, 0.1% (w/v) bovine serum albumin in 50 mM HEPES/NaOH pH 7.5). The resulting mixture was incubated 1 h at 22° C. to allow the binding of the biotinylated phosphorylated peptide to the streptavidine-XL665 and the antibodies. Subsequently the amount of phosphorylated substrate was evaluated by measurement of the resonance energy transfer from the anti-mouse-IgG-Eu-Chelate to the streptavidine-XL665. Therefore, the fluorescence emissions at 620 nm and 665 nm after excitation at 350 nm was measured in a TR-FRET reader, e.g. a Rubystar (BMG Labtechnologies, Offenburg, Germany) or a Viewlux (Perkin-Elmer). The ratio of the emissions at 665 nm and at […] was taken as the measure for the amount of phosphorylated substrate. The data were normalised (enzyme reaction without inhibitor=0% inhibition, all other assay components but no enzyme=100% inhibition).

Assay [3] concerns the target T2, human recombinant kinase full-length Akt1 (Homo sapiens, UniProt P31749).
T2 construct: human recombinant kinase full-length Akt1; His; purchased Invitrogen PV 3599; host or cells: insect cells
Briefly: Akt1 kinase assay (TR-FRET). The class given is biochemical. To be noted: 10 μM ATP, 1 μM peptide substrate, 60 min at 22° C.; read-out: IC50 Akt1 Biological Assay 1.0).
From the text: Biological Assay 1.0: Akt1 Kinase Assay
Akt1 inhibitory activity of compounds of the present invention may be quantified employing the Akt1 TR-FRET assay as described in the following paragraphs.
His-tagged human recombinant kinase full-length Akt1 expressed in insect cells was purchased form Invitrogen (part number PV 3599). As substrate for the kinase reaction the biotinylated peptide biotin-Ahx-KKLNRTLSFAEPG (C-terminus in amide form) was used which can be purchased e.g. from the company Biosynthan GmbH (Berlin-Buch, Germany).
as §1, with “For” for “His-tagged human recombinant kinase full-length Akt2 expressed in insect cells and activated by PDK1 was purchased form Invitrogen (part number PV 3975). As substrate for the kinase reaction the biotinylated peptide biotin-Ahx-KKLNRTLSFAEPG (C-terminus in amide form) was used which can be purchased e.g. from the company Biosynthan GmbH (Berlin-Buch, Germany). For”, “Akt1” for “Akt2”, “0.05” for “0.2”
as §2, with “HTRF” for “TR-FRET”, “inhibition). Normally test compound were tested on the same microtiter plate at 10 different concentrations in the range of 20 μM to 1 nM (20 μM, 6.7 μM, 2.2 μM, 0.74 μM, 0.25 μM, 82 nM, 27 nM, 9.2 nM, 3.1 nM and 1 nM, dilution series prepared before the assay at the level of the 100 fold conc. stock solutions by serial 1:3 dilutions) in duplicate values for each concentration and […] were calculated by a 4 parameter fit using an inhouse software.” for “inhibition).”

What is called IC50 is the concentration that gives 50% inhibition.

T2 sequence (P31749 whole entry): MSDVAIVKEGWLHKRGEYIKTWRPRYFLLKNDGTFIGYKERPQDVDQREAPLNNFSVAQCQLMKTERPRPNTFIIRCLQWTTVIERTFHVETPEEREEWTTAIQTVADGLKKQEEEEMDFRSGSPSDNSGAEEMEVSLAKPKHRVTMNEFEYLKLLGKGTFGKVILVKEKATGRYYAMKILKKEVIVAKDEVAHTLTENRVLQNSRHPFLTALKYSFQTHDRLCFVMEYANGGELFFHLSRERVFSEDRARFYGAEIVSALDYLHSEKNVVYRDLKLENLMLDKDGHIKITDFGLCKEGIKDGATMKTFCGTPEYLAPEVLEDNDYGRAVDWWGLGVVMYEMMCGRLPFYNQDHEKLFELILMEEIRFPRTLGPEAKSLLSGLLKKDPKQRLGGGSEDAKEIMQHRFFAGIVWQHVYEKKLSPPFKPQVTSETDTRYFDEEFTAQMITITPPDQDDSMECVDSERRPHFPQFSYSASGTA
T1 sequence (P31751 whole entry): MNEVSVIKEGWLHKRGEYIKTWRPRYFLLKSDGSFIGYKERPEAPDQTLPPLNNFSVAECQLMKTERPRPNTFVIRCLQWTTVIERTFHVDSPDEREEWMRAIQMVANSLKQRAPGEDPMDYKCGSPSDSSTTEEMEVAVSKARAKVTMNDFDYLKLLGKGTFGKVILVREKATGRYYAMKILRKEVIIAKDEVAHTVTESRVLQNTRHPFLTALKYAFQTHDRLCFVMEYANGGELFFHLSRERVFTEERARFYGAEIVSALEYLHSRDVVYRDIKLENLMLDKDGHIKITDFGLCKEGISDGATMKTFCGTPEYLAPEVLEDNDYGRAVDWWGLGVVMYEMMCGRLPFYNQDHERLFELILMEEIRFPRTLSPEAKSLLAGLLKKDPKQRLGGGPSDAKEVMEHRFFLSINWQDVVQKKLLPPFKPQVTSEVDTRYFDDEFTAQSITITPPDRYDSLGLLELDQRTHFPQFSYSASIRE

Consider `Cc1nc(-c2ccc(CN3CCC(c4n[nH]c(-c5ccccn5)n4)CC3)cc2)c(-c2ccccc2)c2nccn12` [Example 1.0, 5-methyl-8-phenyl-7-{4-[4-(5-pyridin-2-yl-1H-[1,2,4]triazol-3-yl)-piperidin-1-ylmethyl]-phenyl}-imidazo[1,2-c]pyrimidine], for which the IC50 is less than 50 nM in assay [1], 53 nM in assay [2] and 4 nM in assay [3].

`c1ccc(-c2c(-c3ccc(CN4CCC(c5n[nH]c(-c6ccccn6)n5)CC4)cc3)ncn3ccnc23)cc1` [Example 2.0, 8-phenyl-7-{4-[4-(5-pyridin-2-yl-1H-[1,2,4]triazol-3-yl)-piperidin-1-ylmethyl]-phenyl}-imidazo[1,2-c]pyrimidine]: the IC50 in assay [1] came out at 8 nM; in assay [2] it was 42 nM; in assay [3], 8 nM.
